From publication PMC5622171 (Nature Communications, 2017)

What was measured:
Experiment in all cases: KINOMEscan kinase profiling
Type in all cases: binding
[1] = target: T1, ADCK4 (Homo sapiens, UniProt Q96D53); conditions: read-out: %Inhibition by 10 μM SPA70
T1 construct: purchased DiscoverX (Ambit Biosciences) KINOMEscan
Procedure, shortened: (§1)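 KINOMEscan profiling followed a published protocol. Kinases whose inhibition exceeded a set cut-off were then tested in a dilution series beginning at 30 µM.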

[2] = target: T2, PIK3CB (Homo sapiens, UniProt P42338); conditions: read-out: %Inhibition by 10 μM SPA70
T2 construct: purchased DiscoverX (Ambit Biosciences) KINOMEscan
Procedure, shortened: as §1

[3] = target: T3, CDC2L1 (Homo sapiens, UniProt P21127); conditions: read-out: %Inhibition by 10 μM SPA70
T3 construct: purchased DiscoverX (Ambit Biosciences) KINOMEscan
Procedure, shortened: as §1

[4] = target: T4, AMPK-alpha2 (Homo sapiens, UniProt P54646); conditions: read-out: %Inhibition by 10 μM SPA70
T4 construct: purchased DiscoverX (Ambit Biosciences) KINOMEscan
Procedure, shortened: as §1

[5] = target: T5, TRKB (Homo sapiens, UniProt Q16620); conditions: read-out: %Inhibition by 10 μM SPA70
T5 construct: purchased DiscoverX (Ambit Biosciences) KINOMEscan
Procedure, shortened: as §1

[6] = target: T6, PIP5K2B (Homo sapiens, UniProt P78356); conditions: read-out: %Inhibition by 10 μM SPA70
T6 construct: purchased DiscoverX (Ambit Biosciences) KINOMEscan
Procedure, shortened: as §1

[7] = target: T7, ZAK (Homo sapiens, UniProt Q9NYL2); conditions: read-out: %Inhibition by 10 μM SPA70
T7 construct: purchased DiscoverX (Ambit Biosciences) KINOMEscan
Procedure, shortened: as §1

[8] = target: T8, TRKC (Homo sapiens, UniProt Q16288); conditions: read-out: %Inhibition by 10 μM SPA70
T8 construct: purchased DiscoverX (Ambit Biosciences) KINOMEscan
Procedure, shortened: as §1

[9] = target: T9, ULK2 (Homo sapiens, UniProt Q8IYT8); conditions: read-out: %Inhibition by 10 μM SPA70
T9 construct: purchased DiscoverX (Ambit Biosciences) KINOMEscan
Procedure, shortened: as §1

[10] = target: T10, IRAK4 (Homo sapiens, UniProt Q9NWZ3)
T10 construct: purchased DiscoverX (Ambit Biosciences) KINOMEscan
Procedure, shortened: as §1

[11] = target: T11, MKNK2 (Homo sapiens, UniProt Q9HBH9); conditions: read-out: %Inhibition by 10 μM SPA70
T11 construct: purchased DiscoverX (Ambit Biosciences) KINOMEscan
Procedure, shortened: as §1

[12] = target: T12, RET (Homo sapiens, UniProt P07949); conditions: read-out: %Inhibition by 10 μM SPA70
T12 construct: purchased DiscoverX (Ambit Biosciences) KINOMEscan
Procedure, shortened: as §1

[13] = target: T13, RPS6KA5(Kin.Dom.2-C-terminal) (Homo sapiens, UniProt O75582); conditions: read-out: %Inhibition by 10 μM SPA70
T13 construct: RPS6KA5(Kin.Dom.2-C-terminal); purchased DiscoverX (Ambit Biosciences) KINOMEscan
Procedure, shortened: as §1

[14] = target: T14, MAP4K5 (Homo sapiens, UniProt Q9Y4K4); conditions: read-out: %Inhibition by 10 μM SPA70
T14 construct: purchased DiscoverX (Ambit Biosciences) KINOMEscan
Procedure, shortened: as §1

[15] = target: T15, INSR (Homo sapiens, UniProt P06213); conditions: read-out: %Inhibition by 10 μM SPA70
T15 construct: purchased DiscoverX (Ambit Biosciences) KINOMEscan
Procedure, shortened: as §1

[16] = target: T16, MST2 (Homo sapiens, UniProt Q13188)
T16 construct: purchased Ambit Biosciences, now part of DiscoveryX
Procedure, shortened: as §1

[17] = target: T17, p38-delta (Homo sapiens, UniProt O15264); conditions: read-out: %Inhibition by 10 μM SPA70
T17 construct: purchased DiscoverX (Ambit Biosciences) KINOMEscan
Procedure, shortened: as §1

[18] = target: T18, PIK3C2G (Homo sapiens, UniProt O75747); conditions: read-out: %Inhibition by 10 μM SPA70
T18 construct: purchased DiscoverX (Ambit Biosciences) KINOMEscan
Procedure, shortened: as §1

[19] = target: T19, IKK-beta (Homo sapiens, UniProt O14920); conditions: read-out: %Inhibition by 10 μM SPA70
T19 construct: purchased DiscoverX (Ambit Biosciences) KINOMEscan
Procedure, shortened: as §1

[20] = target: T20, YES (Homo sapiens, UniProt P07947); conditions: read-out: %Inhibition by 10 μM SPA70
T20 construct: purchased DiscoverX (Ambit Biosciences) KINOMEscan
Procedure, shortened: as §1

[21] = target: T21, CAMK2B (Homo sapiens, UniProt Q13554); conditions: read-out: %Inhibition by 10 μM SPA70
T21 construct: purchased DiscoverX (Ambit Biosciences) KINOMEscan
Procedure, shortened: as §1

[22] = target: T22, SRMS (Homo sapiens, UniProt Q9H3Y6); conditions: read-out: %Inhibition by 10 μM SPA70
T22 construct: purchased DiscoverX (Ambit Biosciences) KINOMEscan
Procedure, shortened: as §1

[23] = target: T23, AKT2 (Homo sapiens, UniProt P31751); conditions: read-out: %Inhibition by 10 μM SPA70
T23 construct: purchased DiscoverX (Ambit Biosciences) KINOMEscan
Procedure, shortened: as §1

[24] = target: T24, CDK5 (Homo sapiens, UniProt Q00535)
T24 construct: purchased DiscoverX (Ambit Biosciences) KINOMEscan
Procedure, shortened: as §1

[25] = target: T25, CAMK1G (Homo sapiens, UniProt Q96NX5); conditions: read-out: %Inhibition by 10 μM SPA70
T25 construct: purchased DiscoverX (Ambit Biosciences) KINOMEscan
Procedure, shortened: as §1

[26] = target: T26, MLK1 (Homo sapiens, UniProt P80192); conditions: read-out: %Inhibition by 10 μM SPA70
T26 construct: purchased DiscoverX (Ambit Biosciences) KINOMEscan
Procedure, shortened: as §1

[27] = target: T27, EGFR (Homo sapiens, UniProt P00533)
T27 construct: purchased DiscoverX (Ambit Biosciences) KINOMEscan
Procedure, shortened: as §1

[28] = target: T28, SGK3 (Homo sapiens, UniProt Q96BR1); conditions: read-out: %Inhibition by 10 μM SPA70
T28 construct: purchased DiscoverX (Ambit Biosciences) KINOMEscan
Procedure, shortened: as §1

[29] = target: T29, CAMK4 (Homo sapiens, UniProt Q16566); conditions: read-out: %Inhibition by 10 μM SPA70
T29 construct: purchased DiscoverX (Ambit Biosciences) KINOMEscan
Procedure, shortened: as §1

[30] = target: T30, BRK (Homo sapiens, UniProt Q13882); conditions: read-out: %Inhibition by 10 μM SPA70
T30 construct: purchased DiscoverX (Ambit Biosciences) KINOMEscan
Procedure, shortened: as §1

[31] = target: T31, CDKL3 (Homo sapiens, UniProt Q8IVW4); conditions: read-out: %Inhibition by 10 μM SPA70
T31 construct: purchased DiscoverX (Ambit Biosciences) KINOMEscan
Procedure, shortened: as §1

[32] = target: T32, PIK3CG (Homo sapiens, UniProt P48736); conditions: read-out: %Inhibition by 10 μM SPA70
T32 construct: purchased DiscoverX (Ambit Biosciences) KINOMEscan
Procedure, shortened: as §1

[33] = target: T33, TGFBR2 (Homo sapiens, UniProt P37173); conditions: read-out: %Inhibition by 10 μM SPA70
T33 construct: purchased DiscoverX (Ambit Biosciences) KINOMEscan
Procedure, shortened: as §1

[34] = target: T34, MKK7 (Homo sapiens, UniProt O14733)
T34 construct: purchased DiscoverX (Ambit Biosciences) KINOMEscan
Procedure, shortened: as §1

[35] = target: T35, MAST1 (Homo sapiens, UniProt Q9Y2H9); conditions: read-out: %Inhibition by 10 μM SPA70
T35 construct: purchased DiscoverX (Ambit Biosciences) KINOMEscan
Procedure, shortened: as §1

[36] = target: T36, WEE1 (Homo sapiens, UniProt P30291); conditions: read-out: %Inhibition by 10 μM SPA70
T36 construct: purchased DiscoverX (Ambit Biosciences) KINOMEscan
Procedure, shortened: as §1

[37] = target: T37, NLK (Homo sapiens, UniProt Q9UBE8); conditions: read-out: %Inhibition by 10 μM SPA70
T37 construct: purchased DiscoverX (Ambit Biosciences) KINOMEscan
Procedure, shortened: as §1

[38] = target: T38, ERBB3 (Homo sapiens, UniProt P21860); conditions: read-out: %Inhibition by 10 μM SPA70
T38 construct: purchased DiscoverX (Ambit Biosciences) KINOMEscan
Procedure, shortened: as §1

[39] = target: T39, RIPK2 (Homo sapiens, UniProt O43353); conditions: read-out: %Inhibition by 10 μM SPA70
T39 construct: purchased DiscoverX (Ambit Biosciences) KINOMEscan
Procedure, shortened: as §1

[40] = target: T40, CSNK1D (Homo sapiens, UniProt P48730); conditions: read-out: %Inhibition by 10 μM SPA70
T40 construct: purchased DiscoverX (Ambit Biosciences) KINOMEscan
Procedure, shortened: as §1

[41] = target: T41, DYRK1A (Homo sapiens, UniProt Q13627); conditions: read-out: %Inhibition by 10 μM SPA70
T41 construct: purchased DiscoverX (Ambit Biosciences) KINOMEscan
Procedure, shortened: as §1

[42] = read-out: %Inhibition by 10 μM SPA70

T24 sequence (Q00535 whole entry): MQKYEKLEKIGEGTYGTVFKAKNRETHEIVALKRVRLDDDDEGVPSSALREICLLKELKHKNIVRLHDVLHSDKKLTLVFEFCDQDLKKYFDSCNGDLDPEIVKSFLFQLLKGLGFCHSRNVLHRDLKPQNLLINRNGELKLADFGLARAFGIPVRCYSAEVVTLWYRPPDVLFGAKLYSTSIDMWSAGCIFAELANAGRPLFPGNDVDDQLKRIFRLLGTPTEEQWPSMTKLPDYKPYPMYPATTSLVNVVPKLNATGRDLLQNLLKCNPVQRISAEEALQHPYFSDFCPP
T16 sequence (Q13188 whole entry): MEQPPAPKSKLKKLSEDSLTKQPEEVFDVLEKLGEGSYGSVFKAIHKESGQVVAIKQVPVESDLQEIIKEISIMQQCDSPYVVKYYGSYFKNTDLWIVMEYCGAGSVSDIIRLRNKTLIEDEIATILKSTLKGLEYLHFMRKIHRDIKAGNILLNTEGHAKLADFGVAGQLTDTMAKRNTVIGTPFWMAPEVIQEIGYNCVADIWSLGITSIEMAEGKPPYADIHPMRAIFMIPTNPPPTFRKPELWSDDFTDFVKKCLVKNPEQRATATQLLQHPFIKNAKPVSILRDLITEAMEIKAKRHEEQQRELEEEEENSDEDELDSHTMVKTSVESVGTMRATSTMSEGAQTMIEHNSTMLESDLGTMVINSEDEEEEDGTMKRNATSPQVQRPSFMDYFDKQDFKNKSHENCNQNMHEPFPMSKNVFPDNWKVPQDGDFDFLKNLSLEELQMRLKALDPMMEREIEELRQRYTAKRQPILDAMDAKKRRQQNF
T26 sequence (P80192 whole entry): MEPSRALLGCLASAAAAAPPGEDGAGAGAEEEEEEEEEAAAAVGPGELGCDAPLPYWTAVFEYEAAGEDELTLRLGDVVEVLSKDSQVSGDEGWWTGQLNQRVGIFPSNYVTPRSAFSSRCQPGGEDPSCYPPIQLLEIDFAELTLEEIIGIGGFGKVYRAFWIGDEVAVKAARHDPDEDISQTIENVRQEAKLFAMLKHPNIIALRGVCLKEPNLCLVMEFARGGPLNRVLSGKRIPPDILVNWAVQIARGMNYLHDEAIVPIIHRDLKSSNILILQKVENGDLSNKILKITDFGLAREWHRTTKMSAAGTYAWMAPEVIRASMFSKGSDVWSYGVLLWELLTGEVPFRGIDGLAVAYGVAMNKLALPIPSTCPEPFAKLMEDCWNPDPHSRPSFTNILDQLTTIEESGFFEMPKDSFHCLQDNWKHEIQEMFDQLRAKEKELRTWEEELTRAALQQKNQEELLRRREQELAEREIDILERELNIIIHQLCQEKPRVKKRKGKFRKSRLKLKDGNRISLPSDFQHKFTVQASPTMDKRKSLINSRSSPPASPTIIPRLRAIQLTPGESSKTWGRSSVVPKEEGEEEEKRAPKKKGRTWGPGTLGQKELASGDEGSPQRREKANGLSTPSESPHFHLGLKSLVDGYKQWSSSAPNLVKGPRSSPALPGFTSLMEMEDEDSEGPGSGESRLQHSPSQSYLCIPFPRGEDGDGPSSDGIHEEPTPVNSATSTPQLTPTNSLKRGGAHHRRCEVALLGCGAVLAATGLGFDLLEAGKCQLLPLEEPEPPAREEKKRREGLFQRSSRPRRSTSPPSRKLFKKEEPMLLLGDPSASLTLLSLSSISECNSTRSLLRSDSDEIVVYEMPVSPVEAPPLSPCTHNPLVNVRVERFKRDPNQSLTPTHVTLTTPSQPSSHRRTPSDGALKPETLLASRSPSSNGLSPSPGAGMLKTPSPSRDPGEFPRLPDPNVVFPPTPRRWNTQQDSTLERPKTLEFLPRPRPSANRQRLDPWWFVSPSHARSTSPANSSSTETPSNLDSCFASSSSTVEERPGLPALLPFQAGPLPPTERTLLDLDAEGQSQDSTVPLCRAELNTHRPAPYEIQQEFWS
T21 sequence (Q13554 whole entry): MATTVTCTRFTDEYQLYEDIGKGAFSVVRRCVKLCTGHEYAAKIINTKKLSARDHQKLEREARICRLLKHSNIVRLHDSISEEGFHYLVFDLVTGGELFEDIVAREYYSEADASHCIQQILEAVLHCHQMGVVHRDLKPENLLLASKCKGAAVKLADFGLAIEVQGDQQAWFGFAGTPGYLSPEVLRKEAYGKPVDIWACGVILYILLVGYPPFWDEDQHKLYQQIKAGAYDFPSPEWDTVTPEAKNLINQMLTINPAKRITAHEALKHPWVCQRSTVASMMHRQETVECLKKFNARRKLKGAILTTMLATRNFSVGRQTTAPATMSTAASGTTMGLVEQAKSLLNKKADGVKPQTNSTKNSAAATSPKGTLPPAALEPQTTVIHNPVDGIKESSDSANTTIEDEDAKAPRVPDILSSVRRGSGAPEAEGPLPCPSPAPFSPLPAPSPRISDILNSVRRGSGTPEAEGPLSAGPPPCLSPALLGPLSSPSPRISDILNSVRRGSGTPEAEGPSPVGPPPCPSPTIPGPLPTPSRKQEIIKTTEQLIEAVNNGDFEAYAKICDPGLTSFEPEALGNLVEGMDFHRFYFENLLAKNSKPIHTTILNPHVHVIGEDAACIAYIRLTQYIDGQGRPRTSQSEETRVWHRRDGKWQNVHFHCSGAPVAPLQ
T29 sequence (Q16566 whole entry): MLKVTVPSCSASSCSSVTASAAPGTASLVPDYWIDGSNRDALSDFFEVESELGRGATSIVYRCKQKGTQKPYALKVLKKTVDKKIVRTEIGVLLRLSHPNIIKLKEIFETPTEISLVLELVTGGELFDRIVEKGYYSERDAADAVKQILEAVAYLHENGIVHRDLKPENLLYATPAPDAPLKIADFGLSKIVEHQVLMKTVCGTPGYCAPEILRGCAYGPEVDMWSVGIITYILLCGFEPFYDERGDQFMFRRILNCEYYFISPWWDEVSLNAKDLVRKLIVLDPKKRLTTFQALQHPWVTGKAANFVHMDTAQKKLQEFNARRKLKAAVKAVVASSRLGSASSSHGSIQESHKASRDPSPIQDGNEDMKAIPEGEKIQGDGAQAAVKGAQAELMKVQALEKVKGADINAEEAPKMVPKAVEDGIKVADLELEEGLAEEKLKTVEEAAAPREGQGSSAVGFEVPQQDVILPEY
T1 sequence (Q96D53 whole entry): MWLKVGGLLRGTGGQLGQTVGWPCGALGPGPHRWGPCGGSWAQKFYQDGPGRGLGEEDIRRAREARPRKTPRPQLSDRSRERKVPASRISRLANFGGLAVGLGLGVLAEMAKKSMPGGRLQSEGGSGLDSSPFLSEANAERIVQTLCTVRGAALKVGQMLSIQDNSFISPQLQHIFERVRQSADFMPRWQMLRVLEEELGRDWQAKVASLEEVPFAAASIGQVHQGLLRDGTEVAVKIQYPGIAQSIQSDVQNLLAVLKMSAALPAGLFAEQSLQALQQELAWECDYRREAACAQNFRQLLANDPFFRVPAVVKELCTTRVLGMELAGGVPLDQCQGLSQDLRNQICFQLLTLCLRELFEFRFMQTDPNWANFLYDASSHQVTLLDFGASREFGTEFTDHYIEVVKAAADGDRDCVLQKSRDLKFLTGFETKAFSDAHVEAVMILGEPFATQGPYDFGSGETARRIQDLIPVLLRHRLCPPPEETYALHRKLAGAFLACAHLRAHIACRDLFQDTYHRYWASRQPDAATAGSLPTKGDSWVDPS
T7 sequence (Q9NYL2 whole entry): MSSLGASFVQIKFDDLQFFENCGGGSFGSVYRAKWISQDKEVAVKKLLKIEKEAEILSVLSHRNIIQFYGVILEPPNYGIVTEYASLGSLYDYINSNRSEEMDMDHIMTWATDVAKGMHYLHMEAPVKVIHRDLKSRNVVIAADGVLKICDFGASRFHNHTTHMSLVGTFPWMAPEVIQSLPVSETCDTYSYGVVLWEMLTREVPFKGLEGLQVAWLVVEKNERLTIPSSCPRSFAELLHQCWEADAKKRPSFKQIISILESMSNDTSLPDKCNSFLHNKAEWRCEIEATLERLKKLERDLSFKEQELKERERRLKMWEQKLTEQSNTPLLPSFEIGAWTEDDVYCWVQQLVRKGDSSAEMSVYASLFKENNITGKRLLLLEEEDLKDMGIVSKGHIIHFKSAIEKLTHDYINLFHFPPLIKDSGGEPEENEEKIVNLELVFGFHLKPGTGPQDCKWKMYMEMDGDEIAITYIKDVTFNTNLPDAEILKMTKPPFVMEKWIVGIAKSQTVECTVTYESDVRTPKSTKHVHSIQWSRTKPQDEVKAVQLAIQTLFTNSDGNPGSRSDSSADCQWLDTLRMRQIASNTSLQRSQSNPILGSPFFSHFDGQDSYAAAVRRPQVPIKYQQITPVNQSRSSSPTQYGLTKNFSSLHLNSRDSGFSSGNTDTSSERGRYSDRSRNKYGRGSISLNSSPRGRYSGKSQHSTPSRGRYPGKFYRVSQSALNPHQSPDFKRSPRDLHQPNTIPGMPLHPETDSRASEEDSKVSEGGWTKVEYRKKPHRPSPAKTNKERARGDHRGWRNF
T40 sequence (P48730 whole entry): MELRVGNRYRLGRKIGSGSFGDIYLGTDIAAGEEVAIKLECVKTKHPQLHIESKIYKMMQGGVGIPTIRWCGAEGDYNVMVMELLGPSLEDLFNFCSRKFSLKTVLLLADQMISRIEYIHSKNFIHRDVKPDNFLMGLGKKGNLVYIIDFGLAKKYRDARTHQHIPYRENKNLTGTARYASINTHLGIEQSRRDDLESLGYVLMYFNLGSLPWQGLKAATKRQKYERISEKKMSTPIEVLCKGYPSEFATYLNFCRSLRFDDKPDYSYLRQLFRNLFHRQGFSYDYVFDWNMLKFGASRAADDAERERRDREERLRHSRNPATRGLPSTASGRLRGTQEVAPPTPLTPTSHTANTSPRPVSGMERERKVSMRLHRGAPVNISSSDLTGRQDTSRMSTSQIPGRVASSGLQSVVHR

COc1ccc(OC)c(-n2nnc(S(=O)(=O)c3ccc(C(C)(C)C)cc3)c2C)c1 [SPA70]
inhibition at 10 µM [1]: 16%
inhibition at 10 µM [2]: 8%
inhibition at 10 µM [3]: 0%
inhibition at 10 µM [4]: 9%
inhibition at 10 µM [5]: 0%
inhibition at 10 µM [6]: 0%
inhibition at 10 µM [7]: 0%
inhibition at 10 µM [8]: 0%
inhibition at 10 µM [9]: 0%
%Inhibition by 10 μM SPA70 [10]: 0%
inhibition at 10 µM [11]: 6%
inhibition at 10 µM [12]: 0%
inhibition at 10 µM [13]: 37%
inhibition at 10 µM [14]: 0%
inhibition at 10 µM [15]: 0%
Kd ([16]; 11-point 3-fold serial dilutions starting from 30 µM): > 30 µM
inhibition at 10 µM [16, 42]: 62%
inhibition at 10 µM [17]: 21%
inhibition at 10 µM [18]: 0%
inhibition at 10 µM [19]: 26%
inhibition at 10 µM [20]: 2%
inhibition at 10 µM [21]: 13%
inhibition at 10 µM [22]: 0%
inhibition at 10 µM [23]: 0%
%Inhibition by 10 μM SPA70 [24]: not inhibited
inhibition at 10 µM [24, 42]: 0%
inhibition at 10 µM [25]: 25%
inhibition at 10 µM [26]: 0%
%Inhibition by 10 μM SPA70 [27]: 0%
inhibition at 10 µM [28]: 0%
inhibition at 10 µM [29]: 0%
inhibition at 10 µM [30]: 0%
inhibition at 10 µM [31]: 6%
inhibition at 10 µM [32]: 9%
inhibition at 10 µM [33]: 1%
%Inhibition by 10 μM SPA70 [34]: 0%
inhibition at 10 µM [35]: 0%
inhibition at 10 µM [36]: 0%
inhibition at 10 µM [37]: 16%
inhibition at 10 µM [38]: 42%
inhibition at 10 µM [39]: 0%
inhibition at 10 µM [40]: 3%
inhibition at 10 µM [41]: 0%
